Data published in US9102648B1, “Bioavailable diacylhydrazine ligands for modulating the expression of exogenous genes via an ecdysone receptor complex” (Intrexon Corporation, priority 2003, dated 2015).
Like-named read-outs stand apart in the source and are kept apart here.

Tests used:
[1] = biological target: GAL4 DBD-CfEcR(DEF)/VP16AD-MmRXRE (Choristoneura fumiferana, UniProt O77240); assay: 13B3 Assay (CHO stable cell line, luciferase reporter); conditions: for 13B3 assay Rel Max FI: maximum fold induction at any concentration relative to that of GS-E ligand, CHO 13B3 cells; for Fold Induction, 13B3 Assay, 33 uM: 33 uM ligand; for Fold Induction, 13B3 Assay, 33 uM / Fold Induction, 13B3 Assay, 3.3 uM: RLU ligand treated / RLU DMSO treated cells; for Fold Induction, 13B3 Assay, 3.3 uM: 3.3 uM ligand
Excerpt: GAL4 DBD-CfEcR(DEF)/VP16AD-MmRXRE:
The wild-type D, E, and F domains from spruce budworm Choristoneura fumiferana EcR (“CfEcR-DEF”; SEQ ID NO: 1) were fused to a GALA DNA binding domain (“Gal4DBD1-147”; SEQ ID NO: 2) and placed under the control of the SV40e promoter of pM vector (PT3119-5, Clontech, Palo Alto, Calif.). The D and E domains from Mus Musculus RXR (“MmRXR-DE”; SEQ ID NO: 11) were fused to the transactivation domain from VP16 (“VP16AD”; SEQ ID NO: 6) and placed under the control of the SV40e promoter of the pVP16 vector (PT3127-5, Clontech, Palo Alto, Calif.).
CHO cells were transiently transfected with transcription cassettes for GAL4 DBD-CJEcR(DEF) and for VP16AD-MmRXRE controlled by SV40e promoters. Stably transfected cells were selected using Hygromycin. Individually isolated CHO cell clones were transiently transfected with a GALA RE-luciferase reporter (pFR-Luc, Stratagene, La Jolla, Calif.). The 13B3 clone was selected using Zeocin.
Cells were trypsinized and diluted to a concentration of 2.5×10^4 cells mL. 100 μL of cell suspension was placed in each well of a 96 well plate and incubated at 37° C. under 5% CO2 for 24 h. Ligand stock solutions were prepared in DMSO and diluted 300 fold for all treatments. Dose response testing consisted of 8 concentrations ranging from 33 μM to 0.01 μM.
Luciferase reporter gene expression was measured 48 h after cell treatment using Bright-Glo™ Luciferase Assay System from Promega (E2650). Luminescence was detected at room temperature using a Dynex MLX microtiter plate luminometer.
(§1) Each assay was conducted in two separate wells, and the two values were averaged. Fold inductions were calculated by dividing relative light units (“RLU”) in ligand treated cells with RLU in DMSO treated cells. EC50s were calculated from dose response data using a three-parameter logistic model.

[2] = biological target: T1, Bombyx mori EcR (VP16 fusion, CVBE switch construct) (Bombyx mori, UniProt P49881); assay: Z3 Assay (HEK-293 cells with CVBE and 6XEcRE LacZ, β-galactosidase reporter); conditions: for fold induction at 33 µM: HEK293, read-out: Fold Induction, Z3 Assay, 33 uM; for Z3 assay Rel Max FI: maximum fold induction at any concentration relative to that of GS-E ligand; for Fold Induction, Z3 Assay, 3.3 uM: 3.3 uM ligand; for Fold Induction, Z3 Assay, 3.3 uM / Fold Induction, Z3 Assay, 33 uM: ligand treated / DMSO treated cells; for Fold Induction, Z3 Assay, 33 uM: 33 uM ligand
T1 sequence (P49881 86-606): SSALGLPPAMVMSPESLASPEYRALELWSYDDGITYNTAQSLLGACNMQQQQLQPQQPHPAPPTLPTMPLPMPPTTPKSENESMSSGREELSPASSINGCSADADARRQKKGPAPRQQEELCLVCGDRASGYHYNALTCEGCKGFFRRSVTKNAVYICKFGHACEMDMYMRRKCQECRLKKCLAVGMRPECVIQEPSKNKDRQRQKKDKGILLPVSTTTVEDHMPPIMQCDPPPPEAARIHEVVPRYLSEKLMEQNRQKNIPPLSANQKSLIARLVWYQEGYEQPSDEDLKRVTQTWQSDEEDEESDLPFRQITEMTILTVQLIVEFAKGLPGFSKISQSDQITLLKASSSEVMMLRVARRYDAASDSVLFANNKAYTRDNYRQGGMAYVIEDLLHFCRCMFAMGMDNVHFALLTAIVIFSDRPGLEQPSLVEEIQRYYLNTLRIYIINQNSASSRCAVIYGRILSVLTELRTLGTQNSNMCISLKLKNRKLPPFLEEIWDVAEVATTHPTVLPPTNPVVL
T1 sequence (P19793 1-462 partner): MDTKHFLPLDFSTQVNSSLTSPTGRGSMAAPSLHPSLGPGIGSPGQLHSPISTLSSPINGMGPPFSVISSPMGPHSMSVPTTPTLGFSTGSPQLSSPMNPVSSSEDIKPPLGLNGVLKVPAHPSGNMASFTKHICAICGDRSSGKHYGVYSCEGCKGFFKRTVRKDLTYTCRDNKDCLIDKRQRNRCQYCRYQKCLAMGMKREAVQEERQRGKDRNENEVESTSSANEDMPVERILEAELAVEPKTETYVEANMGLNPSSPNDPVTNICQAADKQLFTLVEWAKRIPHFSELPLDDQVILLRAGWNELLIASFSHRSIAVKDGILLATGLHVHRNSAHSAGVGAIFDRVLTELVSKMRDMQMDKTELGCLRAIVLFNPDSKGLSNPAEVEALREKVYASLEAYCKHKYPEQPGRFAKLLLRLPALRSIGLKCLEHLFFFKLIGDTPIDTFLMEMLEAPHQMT
Excerpt: Dr. F. Gage provided a population of stably transformed cells containing CVBE and 6XEcRE as described in Suhr, S. T., Gil, E. B., Senut M. C., Gage, F. H. (1998) Proc. Natl. Acad. Sci. USA 95, 7999-804. Human 293 kidney cells, also referred to as HEK-293 cells, were sequentially infected with retroviral vectors encoding first the switch construct CVBE, and subsequently the reporter construct 6XEcRE Lac Z. The switch construct contained the coding sequence for amino acids 26-546 from Bombyx mori EcR (BE) (Iatrou) inserted in frame and downstream of the VP16 transactivation domain (VBE). A synthetic ATG start codon was placed under the control of cytomegalovirus (CVBE) immediate early promoter and flanked by long terminal repeats (LTR). The reporter construct contained six copies of the ecdysone response element (EcRE) binding site placed upstream of LacZ and flanked on both sides with LTR sequences (6XEcRE).
Dilution cloning was used to isolate individual clones. Clones were selected using 450 ug/mL G418 and 100 ng/mL puromycin. Individual clones were evaluated based on their response in the presence and absence of test ligands.
Human 293 kidney cells stably transformed with CVBE and 6XEcRE LacZ were maintained in Minimum Essential Medium (Mediates, 10-010-CV) containing 10% FBS (Life Technologies, 26140-087), […] G418 (Mediates, 30-234-CR), and […] (Sigma, P-7255), at 37° C. in an atmosphere containing 5% CO2 and were subculture when they reached 75% confluence.
Z3 cells were seeded into 96-well tissue culture plates at a concentration of 2.5×10^3 cells per well and incubated at 37° C. in 5% CO2 for twenty-four hours. Stock solutions of ligands were prepared in DMSO. Ligand stock solutions were diluted 100 fold in media and 50 μL of this diluted ligand solution ([…]) was added to cells. The final concentration of DMSO was maintained at 0.03% in both controls and treatments.
Reporter gene expression was evaluated 48 hours after treatment of cells, β-galactosidase activity was measured using Gal Screen™ bioluminescent reporter gene assay system from Tropix (GSY1000). Fold induction activities were calculated by dividing relative light units (“RLU”) in ligand treated cells with RLU in DMSO treated cells. Luminescence was detected at room temperature using a Dynex MLX microtiter plate luminometer.
Flanking both constructs are long terminal repeats, G418 and puromycin are selectable markers, CMV is the cytomegalovirus promoter, VBE is coding sequence for amino acids 26-546 from Bombyx mori EcR inserted downstream of the VP16 transactivation domain, 6×EcRE is six copies of the ecdysone response element, lacZ encodes for the reporter enzyme β-galactosidase.
as §1

[3] = read-out: Z3 assay EC50, HEK-293 Z3 cells, β-galactosidase reporter, average of two wells
[4] = read-out: 13B3 EC50, CHO 13B3 stable cell line, luciferase reporter, 48 h, average of two wells

## COc1cccc(C(=O)NN(C(=O)c2cc(C)cc(C)c2)C(C)(C)C)c1CS(C)(=O)=O [RG-115408, 2-methanesulfonylmethyl-3-methoxy-benzoic acid N′-tert-butyl-N′-(3,5-dimethyl-benzoyl)-hydrazide]
[1]
  EC50: > 50 µM
  13B3 assay Rel Max FI: 0
[1]; read-out: Fold Induction, 13B3 Assay, 3.3 uM
  fold induction at 3.3 µM: 1
[2]
  EC50: > 50 µM
  fold induction at 33 µM: 3
[2]; HEK293, read-out: Fold Induction, Z3 Assay, 3.3 uM
  fold induction at 3.3 µM: 1
[2]; HEK-293 Z3 cells
  Z3 assay Rel Max FI: 0.01

## COc1ccc(Cl)cc1C(=O)N(NC(=O)c1cccc(C)c1C)C(C)(C)C [RG-101178]
[1]; average of two wells
  Fold Induction, 13B3 Assay, 33 uM: 699
[2]; average of two wells
  Fold Induction, Z3 Assay, 3.3 uM: 1200
  Fold Induction, Z3 Assay, 33 uM: 431
[2]; HEK-293 Z3 cells
  Z3 assay Rel Max FI: 0.887
[2]; [3]
  EC50: 1.32 µM

## Cc1cc(C)cc(C(=O)N(NC(=O)c2ccc3c(c2)CCO3)C(C)(C)C)c1 [RG-101531]
[1]; average of two wells
  Fold Induction, 13B3 Assay, 33 uM: 274
[2]; average of two wells
  Fold Induction, Z3 Assay, 3.3 uM: 1130
  Fold Induction, Z3 Assay, 33 uM: 428
[2]; [3]
  EC50: 0.085 µM

## CCc1c(C(=O)NN(C(=O)c2cccc(C(F)(F)F)c2)C(C)(C)C)ccc2c1OCO2 [RG-115260]
[1]; average of two wells
  Fold Induction, 13B3 Assay, 33 uM: 13
[2]; average of two wells
  Fold Induction, Z3 Assay, 33 uM: 526

## CCc1ccccc1C(=O)N(NC(=O)c1cccc(OC)c1C)C(C)(C)C [RG-101062]
[1]; average of two wells
  Fold Induction, 13B3 Assay, 33 uM: 319
[2]; average of two wells
  Fold Induction, Z3 Assay, 3.3 uM: 1127
  Fold Induction, Z3 Assay, 33 uM: 391
[2]; HEK-293 Z3 cells
  Z3 assay Rel Max FI: 0.992
[2]; [3]
  EC50: 2.57 µM

## CCc1ccc(C(=O)NN(C(=O)c2cccc(C)c2)C(C)(C)C)c(F)c1 [RG-115674]
[1]; average of two wells
  Fold Induction, 13B3 Assay, 3.3 uM: 442
[1]
  13B3 assay Rel Max FI: 0.875
[1]; [4]
  EC50: 1.72 µM
[2]; average of two wells
  Fold Induction, Z3 Assay, 3.3 uM: 319
[2]; HEK-293 Z3 cells
  Z3 assay Rel Max FI: 0.995
[2]; [3]
  EC50: 0.229 µM

## CCc1c(OC)cccc1C(=O)NN(C(=O)c1cc(OC)c(OC(C)=O)c(OC)c1)C(C)(C)C [RG-115191]
[1]; average of two wells
  Fold Induction, 13B3 Assay, 3.3 uM: 3
[1]
  13B3 assay Rel Max FI: 1.513
[1]; [4]
  EC50: > 50 µM
[2]; average of two wells
  Fold Induction, Z3 Assay, 3.3 uM: 386
[2]; HEK-293 Z3 cells
  Z3 assay Rel Max FI: 0.934
[2]; [3]
  EC50: 2.4 µM

## CCc1c(OC)cccc1C(=O)NN(C(=O)c1cccc(Br)c1)C(C)(C)C#N [RG-115648]
[1]; average of two wells
  Fold Induction, 13B3 Assay, 3.3 uM: 9
[2]; HEK-293 Z3 cells
  Z3 assay Rel Max FI: 0.182
[2]; [3]
  EC50: 21.4 µM

## Cc1cc(C)cc(C(=O)N(NC(=O)c2cccc([N+](=O)[O-])c2C)C(C)(C)C)c1 [RG-100915]
[1]; average of two wells
  Fold Induction, 13B3 Assay, 3.3 uM: 133
  Fold Induction, 13B3 Assay, 33 uM: 525
[1]
  13B3 assay Rel Max FI: 0.552
[1]; [4]
  EC50: 4.45 µM
[2]; average of two wells
  Fold Induction, Z3 Assay, 3.3 uM: 532
  Fold Induction, Z3 Assay, 33 uM: 1292
[2]; HEK-293 Z3 cells
  Z3 assay Rel Max FI: 0.912
[2]; [3]
  EC50: 1 µM

## CCc1ccc(C(=O)NN(C(=O)c2cc(C)c(Cl)c(C)c2)C(C)(C)C)cc1 [RG-101862]
[1]; average of two wells
  Fold Induction, 13B3 Assay, 3.3 uM: 3279
  Fold Induction, 13B3 Assay, 33 uM: 293
[1]
  13B3 assay Rel Max FI: 0.861
[1]; [4]
  EC50: 1.05 µM
[2]; average of two wells
  Fold Induction, Z3 Assay, 3.3 uM: 717
  Fold Induction, Z3 Assay, 33 uM: 250
[2]; HEK-293 Z3 cells
  Z3 assay Rel Max FI: 0.866
[2]; [3]
  EC50: 0.269 µM

## Cc1cc(C)cc(C(=O)N(NC(=O)c2ccc3c(c2)OC(C)CO3)C(C)(C)C)c1 (racemic) [RG-101509]
[1]; average of two wells
  Fold Induction, 13B3 Assay, 33 uM: 1144
[2]; average of two wells
  Fold Induction, Z3 Assay, 3.3 uM: 1303
  Fold Induction, Z3 Assay, 33 uM: 328
[2]; HEK-293 Z3 cells
  Z3 assay Rel Max FI: 0.882
[2]; [3]
  EC50: 1.18 µM

## CCc1c(OC)cccc1C(=O)NN(C(=O)c1ccc2nc[nH]c2c1)C(C)(C)C [RG-115719, 3H-benzoimidazole-5-carboxylic acid N-tert-butyl-N′-(2-ethyl-3-methoxy-benzoyl)-hydrazide]
[1]; read-out: Fold Induction, 13B3 Assay, 33 uM
  fold induction at 33 µM: 1
[2]
  fold induction at 33 µM: 271

## CCc1c(OC)cccc1C(=O)NN(C(=O)c1cccc(C#N)c1)C(C)(C)C [RG-115327]
[1]; average of two wells
  Fold Induction, 13B3 Assay, 33 uM: 3785
[2]; average of two wells
  Fold Induction, Z3 Assay, 3.3 uM: 279
  Fold Induction, Z3 Assay, 33 uM: 325
[2]; HEK-293 Z3 cells
  Z3 assay Rel Max FI: 0.662
[2]; [3]
  EC50: 2.75 µM
